Calls of active or inactive are those of the source.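 The calls were made as follows: active = compounds giving half or more protection of infected cells from virus-caused growth loss, again on retest; inactive = the rest.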
System: CEM cells HIV-1 protection, formazan growth assay
Assay: NCI AIDS Antiviral Assay
Settings: for IC50: measured here: growth of uninfected CEM cells
How it was run: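 Human CEM cells, uninfected and HIV-1-infected, exposed to five drug concentrations; growth measured by soluble formazan assay and scored as percent protection from infection, with protecting compounds retested.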

Compound | EC50 [µM] | IC50 [µM] | outcome
COc1cc(-c2cc(=O)c3cc4c(=O)cc(-c5cc(OC)c(OC)c(OC)c5)oc4cc3o2)cc(OC)c1OC | > 100 | > 100 | –
c1ccc(OP2(Oc3ccccc3)=NP(Oc3ccccc3)(Oc3ccccc3)=NP(Oc3ccccc3)(Oc3ccccc3)=NP(Oc3ccccc3)(Oc3ccccc3)=N2)cc1 | > 100 | > 100 | –
Cn1c2ccccc2n2c3ccccc3c(=S)c(C#N)c12 | > 100 | > 100 | –
CC(C)(C)N=C1CC(C)(C)c2ccccc2C(=Nc2ccccc2)S1 | – | – | inactive
O=C1Nc2ccccc2Oc2ccccc21 | 51.3 | > 200 | –
C[n+]1c(-c2ccc(/C=N\NC(=O)c3cncc(C(=O)N/N=C/c4ccc(-c5cn6ccccc6[n+]5C)cc4)c3)cc2)cn2ccccc21 | > 7.41 | > 7.41 | –
COC(=O)/C(C#N)=C1\N=NNN1CCCc1ccccc1 | – | – | inactive
Cc1ccccc1-n1c(=S)n(-c2ccccn2)c2nc3ccccc3nc1/c2=N/Nc1ccccn1 | > 162 | – | –
O=C(NCCCN(CCCCN(CCCNC(=O)c1cc(S(=O)(=O)O)cc(O)c1O)C(=O)c1cc(S(=O)(=O)O)cc(O)c1O)C(=O)c1cc(S(=O)(=O)O)cc(O)c1O)c1cc(S(=O)(=O)O)cc(O)c1O | > 200 | 72.4 | –
COC1=NS(=O)(=O)C(C)C(C)(C)O1 (stereo not given) | > 427 | > 427 | –
O=Nc1ccc(Cl)cc1C(=O)c1ccccc1 | > 200 | 32.4 | –
CC(=O)NCCCCN(CCCNC(C)=O)C(=O)OCc1ccccc1 | > 200 | > 200 | –
CN(C)c1ccc(C2N(C)CCN2C)cc1 | > 200 | > 200 | –
COc1nc(N)c(C#N)c(C#N)c1C#N | > 200 | > 200 | –
C/C(=N/OC(=O)N(C)C)c1cccs1 | > 200 | > 200 | –
NC(=O)C(=O)C(c1ccccc1)S(=O)(=O)Cc1ccccc1 (stereo not given) | > 200 | > 200 | –
CC(=O)OC1C2CCC1C1C2C2(Cl)C(Cl)=C(Cl)C1(Cl)C2(Cl)Cl (stereo not given) | – | – | inactive

Compound | EC50 [µM] | IC50 [µM] | outcome
CCOC(=O)COc1ccc(S(=O)(=O)c2ccc(OCC(=O)OCC)cc2)cc1 | > 200 | > 200 | –
[O]=[Sb]([OH])([OH])[c]1ccc(O)cc1 | > 200 | 33.9 | –
OCCN1CCN(CCCN2c3ccccc3Sc3ccc(Cl)cc32)CC1 | > 200 | 10 | –
CC(=O)OC1=C(CC2CCCC2=O)C(=O)CC1 (stereo not given) | – | – | inactive
O=C1Nc2ccccc2Cn2c1cc1oc(-c3ccccc3)cc12 | > 200 | 191 | –
CN(CCC#N)C1=CCCC1 | > 200 | > 200 | –
Cc1cc(C)n(-c2nc(C)c(CCO)c(=O)[nH]2)n1 | – | – | inactive
CCOC(=O)C(NC(=O)c1ccccc1)(Nc1ccc(S(=O)(=O)Nc2nc(C)cc(C)n2)cc1)C(F)(F)F (stereo not given) | > 200 | > 200 | –
CN(C)C(=O)NCCN1CCCCCc2ccccc21 | > 200 | 49 | –
CC1CN1C(=O)NCCCCCCNC(=O)N1CC1C (stereo not given) | > 200 | 4.79 | –
CC(O)=NC(Cc1ccc2ccccc2c1)C(O)=NC(Cc1ccc(Cl)cc1)C(O)=NC(Cc1c[nH]c2ccccc12)C(O)=NC(CO)C(O)=NC(Cc1ccc(O)cc1)C(O)=NC(CCCN=C(N)N)C(O)=NC(CC(C)C)C(O)=NC(CCCN=C(N)N)C(=O)N1CCCC1C(O)=NC(C)C(=N)O (stereo not given) | > 87.1 | > 87.1 | –
[C-]#[O+].[C-]#[O+].[C-]#[O+].[Cr].c1ccc(P(CC[PH+](CC[PH+](CC[PH+](c2ccccc2)c2ccccc2)c2ccccc2)c2ccccc2)c2ccccc2)cc1 (stereo not given) | > 4.68 | > 4.68 | –
CCCCCCCCCCCCCCCCCCCCOC1OC(CO)C(O)C(O)C1O (stereo not given) | > 3.63 | > 3.63 | –
O=c1oc2ccccc2cc1-c1nc2ccccc2c(=O)[nH]1 | > 100 | > 100 | –
CCSc1ccc(N=[N+]([O-])c2ccc(SCC)c(Cl)c2)cc1Cl | > 50.1 | > 50.1 | –
C[s+]1c2ccccc2c2ccccc21 | > 22.9 | 18.6 | –

Source: PubChem BioAssay AID179 (DTP/NCI, 2004)
